One block for each molecule: values may come before it.
Experiments:
[1] = test system: MCF7 cells; assay: MTT proliferation assay, 72 hr (Example 6.2); format: cell-based, human; settings: Homo sapiens, MCF7, 72 h, mean ± SD of at least five experiments
Method: (§1) The human cancer cell lines; MCF7 (breast), HCT116 (colon) and A549 (lung) (Cancer Research UK, London, UK), were grown in either DMEM (Sigma) or RPMI (Sigma) media supplemented with 10% foetal bovine serum, 2 mM L-glutamine, 1% penicillin/streptomycin.
(§2) To study the effect of each agent on cell growth, cells growing exponentially were added to 96-well plates at a density of 3×10^4/well. Drugs (0.1-100 μM) were then added to the wells, ensuring an equal volume of 200 μl across the plate. Cell number was measured at 72 hr using a standard methylthiazoletetrazolium (MTT)-based assay without modifications as described previously (Gordi et al., 2004, Toxicol. Lett. 147: 99-107). Briefly, MTT (Sigma) was added to each well to give a working concentration of 0.4 mg/ml, and plates returned to the incubator for a further 1 hr. After this time, the medium was aspirated off, 200 μl of DMSO was then added to each well, and plates agitated gently for 5 min before measuring optical density at 540 nm in each well.

[2] = test system: HCT116^norm cells; assay: MTT proliferation assay, 72 hr (Example 6.2); format: cell-based, human; settings: Homo sapiens, 72 h, MTT, mean ± SD of at least five experiments, read-out: IC50
Method: as §1, §2

[3] = test system: A549 cells; assay: MTT proliferation assay, 72 hr (Example 6.2); format: cell-based, human; settings: Homo sapiens, A549, 72 h, mean ± SD of at least five experiments
Method: as §1, §2

[4] = test system: all the cell lines (A549, HCT116^norm, MCF7); assay: Effect of low LEN concentrations alone on cell numbers and viabilities (Example 6.2); format: cell-based, human; settings: LEN alone at 0.1 and 1 μM
Method: Median-effect analysis of combination requires the extrapolation of an IC50-value. Where this was not possible, the inventors explored the effect of combining drugs by fixing the concentration of GEM or LEN (modulating agent) and testing its ability to influence the activity of ART (drug partner). […] ART was diluted in growth medium and added to the plates in a range of drug concentrations to allow determination of IC50. The effect on these IC50 values of co-culture with a sub-optimal concentration (˜IC20) of GEM or LEN was then tested. Cell numbers at 72 hr were assessed by the MTT assay as previously described. This enabled the assessment of the nature of any drug-drug interaction by comparing the IC50 for ART in the presence and absence of the combinatorial drug partner.
The lack of a dose-response in the cells rendered the primary model of drug-drug interaction ineffectual for combinations of ART with LEN. For this reason the inventors next tested the ability of LEN to sensitise cells to ART. These combinatorial analyses were performed in all the cell lines using a smaller concentration of LEN (0.1 and 1 μM). These concentrations had little effect on cell numbers and viabilities.

[5] = test system: PANC1 cells; assay: MTT proliferation assay, 72 hr (Example 6.1); format: cell-based, human; settings: for IC50: Homo sapiens, PANC-1, PANC1 (pancreas), 72 hours treatment, MTT, mean ± SD of at least 3 experiments
Method: (§3) The human cancer cell lines; MCF7 (breast), HCT116 and SW480 (colon) (Cancer Research UK, London, UK), KM and MJT3 (melanoma) (in house), PANC1 and MIAPaCa (pancreas) (European Collection of Cell Cultures, Salisbury, UK) were grown in either DMEM (Sigma) or RPMI (Sigma) media supplemented with 10% foetal bovine serum, 2 mM L-glutamine, 1% penicillin/streptomycin.
as §2, with “ATM and ART” for “each agent”, “Drugs (0.1-100 μM) were then added to the wells, ensuring an equal volume of 200 μl across the plate.” left out, “number/proliferation” for “number”, “modifications.” for “modifications as described previously (Gordi et al., 2004, Toxicol. Lett. 147: 99-107).”, “μL” for “μl”

[6] = test system: human cancer cell lines; assay: Trypan blue dye exclusion in parallel to MTT (Example 6.1); format: cell-based; settings: in parallel to the MTT assay; data not shown
[7] = test system: Plasmodium falciparum; settings: Haynes 2006; Vivas 2007; Ramharter 2006; cited from earlier work
[8] = Nagelschmitz et al., 2008; cited from earlier work
[9] = test system: HCT116, SW480 and MCF7 cells; assay: Combination with OXP at fixed ratio, nature of interaction (Example 6.1); format: cell-based, human; settings: combined with OXP, median effect analysis
Source text: This combination studies followed an approach previously described (Liu et al. 2008, Leuk Lymphoma, 49(9):1800-9).

[10] = test system: HCT116 cells; assay: Flow cytometric analysis of the cell cycle (Example 6.1); format: cell-based, human
Method: (§4) Cells were cultured with equi-active concentrations (˜IC25) of ART or ATM for 72 hrs, before fixing in 70% (v/v) ethanol in PBS. Following an incubation period of at least 30 mins, cells were washed and re-suspended in a DNA staining solution (1 mg/mL propidium iodide and 1 ng/mL RNAse A (both Sigma). Acquisition of data was performed within 1 h using a Becton Dickinson FACSCalibur (BD Biosciences), and gating was employed to remove doublet artefacts and to discriminate cells from debris. Ten thousand cells were analysed, and the percentages of cells in G1, S and G2/M phases were determined using the cell cycle analysis program WinMDI CellQuest v2.9 (http://facs.scripps.edu/software.html).

[11] = test system: SW480 cells; assay: as above; format: cell-based, human; settings: SW480, equi-active (~IC25) concentration, 72 hrs
Method: as §4

[12] = test system: MCF7 cells; assay: as above; format: cell-based, human
Method: as §4

[13] = test system: Bax; assay: Immunoblotting analysis (Example 6.1); format: cell-based, human; settings: immunoblotting of treated cultures
Method: (§5) Cells were harvested and total cellular protein was solubilised in lysis buffer (New England Biolabs, Hitchin, UK) and resolved by Tris-glycine electrophoresis using a 4-12% bis-tris gradient-gel according to the method of Laemmli (Laemmli UK. 1970. Nature, 227(5259):680-5). Following transfer of proteins to nitrocellulose membranes (0.45 μm), blocking was performed in 5% (w/v) non-fat milk in TTBS [0.5% (v/v) Tween-20 in TBS (50 mM Tris, 150 mM NaCl, pH 8.0)]. Primary antibody probing was performed with anti-p53, anti-p21, anti-Bax, anti-CDK4, anti-cyclin D1 or anti-pRb. All primary antibodies were obtained from New England Biolabs (Hitchin, UK) and used at a dilution of 1:1,000, unless stated otherwise. Anti-GAPDH was used as a loading control (1:2,000—New England). Following five washing steps in TTBS, horseradish peroxidase-conjugated anti-species IgG1 was used as the secondary antibody (Amersham Biosciences Ltd., Little Chalfont, UK). Bands were visualised by the ECL-plus detection system (Amersham).

[14] = test system: p21^waf1cip1; assay: Immunoblotting analysis (Example 6.1); format: cell-based, human; settings: whole cell lysates, ~IC25, 72 hrs
Method: as §5

[15] = test system: pRb; assay: Immunoblotting analysis (Example 6.1); format: cell-based, human; settings: in each cell line (HCT116, SW480, MCF7)
Method: as §5

[16] = test system: cyclin D1 and CDK 4; assay: Immunoblotting analysis (Example 6.1); format: cell-based, human; settings: whole cell lysates, equi-active (~IC25) concentrations, 72 hrs
Method: as §5

[17] = test system: MiaPaCa3 cells; assay: MTT proliferation assay, 72 hr (Example 6.1); format: cell-based; settings: Homo sapiens, MiaPaCa3 (pancreas), 72 hours treatment, mean ± SD of at least 3 experiments
Method: as §3
as §2, with “ATM and ART” for “each agent”, “μL” for “μl”, “number/proliferation” for “number”, “modifications.” for “modifications as described previously (Gordi et al., 2004, Toxicol. Lett. 147: 99-107).”

[18] = test system: KM cells; assay: MTT proliferation assay, 72 hr (Example 6.1); format: cell-based; settings: Homo sapiens, KM (melanoma), 72 hours treatment, mean ± SD of at least 3 experiments
Method: as §3
as §2, with “ATM and ART” for “each agent”, “μL” for “μl”, “number/proliferation” for “number”, “modifications.” for “modifications as described previously (Gordi et al., 2004, Toxicol. Lett. 147: 99-107).”

[19] = test system: MJT3 cells; assay: MTT proliferation assay, 72 hr (Example 6.1); format: cell-based, human; settings: for IC50: Homo sapiens, MJT3 (melanoma), 72 hours treatment, MTT, mean ± SD of at least 3 experiments
Method: as §3
as §2, with “ATM and ART” for “each agent”, “μL” for “μl”, “number/proliferation” for “number”, “modifications.” for “modifications as described previously (Gordi et al., 2004, Toxicol. Lett. 147: 99-107).”

[20] = test system: HCT116 cells; assay: MTT proliferation assay, 72 hr (Example 6.1); format: cell-based, human; settings: for IC50: Homo sapiens, HCT-116, HCT116 (colon), 72 hours treatment, MTT, mean ± SD of at least 3 experiments
Method: as §3
as §2, with “ATM and ART” for “each agent”, “μL” for “μl”, “number/proliferation” for “number”, “modifications.” for “modifications as described previously (Gordi et al., 2004, Toxicol. Lett. 147: 99-107).”

[21] = test system: SW480 cells; assay: MTT proliferation assay, 72 hr (Example 6.1); format: cell-based, human; settings: for IC50: Homo sapiens, SW480 (colon), 72 hours treatment, MTT, mean ± SD of at least 3 experiments
Method: as §3
as §2, with “ATM and ART” for “each agent”, “μL” for “μl”, “number/proliferation” for “number”, “modifications.” for “modifications as described previously (Gordi et al., 2004, Toxicol. Lett. 147: 99-107).”

[22] = test system: MCF7 cells; assay: MTT proliferation assay, 72 hr (Example 6.1); format: cell-based, human; settings: for IC50: MCF7 (breast), 72 hours treatment, MTT, mean ± SD of at least 3 experiments
Method: as §3
as §2, with “ATM and ART” for “each agent”, “μL” for “μl”, “number/proliferation” for “number”, “modifications.” for “modifications as described previously (Gordi et al., 2004, Toxicol. Lett. 147: 99-107).”

IC50 [1]: > 100 µM | IC50 [2]: > 100 µM | IC50 [3]: > 100 µM
SMILES: Nc1cccc2c1CN(C1CCC(=O)NC1=O)C2=O (centres unmarked) [Lenalidomide, 1-oxo-2-(2,6-dioxopiperidin-3-yl)-4-aminoisoindoline]
effect on cell numbers and viabilities [4]: little effect

IC50 [5]: > 1000 µM | IC50 [17]: 14 ± 10 µM | IC50 [20]: 9.5 ± 0.9 µM | IC50 [21]: 4.5 ± 1.6 µM | IC50 ([22]; Homo sapiens, MCF7, 72 h): 0.5 µM | IC50 less for ATM than its precursor ART ([22]; MCF7): around 80 fold | IC50 [22]: 0.56 ± 0.17 µM
SMILES: C[C@H]1[C@H](N2CCS(=O)(=O)CC2)O[C@@H]2O[C@@]3(C)CC[C@H]4[C@H](C)CC[C@@H]1[C@@]24OO3 [Artemisone, artemisone]
impact on cell number ([5]; p53-mutant, resistant PANC1 cell line): neither drug had an impact | cell viability (trypan blue dye exclusion) [6]: did not affect cell viability | activity against Plasmodium falciparum compared with other antimalarial drugs [7]: significantly more active | toxicity [8]: almost negligible toxicity | nature of interaction with OXP [9]: additive interaction | apoptotic/sub-G1 phase of the cell cycle ([10]; HCT116, equi-active (~IC25) concentration, 72 hrs): no increase | distribution of cells within the G1, S and G2 phases ([10]; HCT116, ~IC25, 72 hrs): did not alter the distribution | apoptotic/sub-G1 phase of the cell cycle [11]: no increase | apoptotic/sub-G1 phase of the cell cycle ([12]; MCF7, equi-active (~IC25) concentration, 72 hrs): no increase | cell cycle effect ([12]; MCF7, ~IC25, 72 hrs): G1-selective blockade | cells in G1 ([12]; MCF7, ~IC25, 72 hrs, untreated 63±4.40%, p=0.015): 83±5.5% | pro-apoptotic protein Bax [13]: no increase | levels of the general CDK inhibitor p21^waf1cip1 [14]: generally unchanged | levels of pRb [15]: dramatic reduction | levels of cyclin D1 and its associated CDK 4 [16]: significantly reduced | IC50 [18]: 6.4 ± 2.1 µM | IC50 [19]: 30 ± 26 µM | effect on cell number ([19]; MJT3 cells, MTT 72 hr): significantly reduced cell number | susceptibility to ATM relative to ART ([20]; HCT116, comparison of IC50): around 30 × | susceptibility to ATM relative to ART ([21]; SW480, comparison of IC50): around 30 ×

IC50 [5]: > 1000 µM | IC50 [17]: 31 ± 13 µM | IC50 [20]: 204 ± 88 µM | IC50 [21]: 156 ± 38 µM | IC50 ([22]; Homo sapiens, MCF7, 72 h): 44 ± 15 µM
SMILES: C[C@@H]1CC[C@H]2[C@@H](C)C(=O)O[C@@H]3O[C@@]4(C)CC[C@@H]1[C@]32OO4 [Artemisinin, artemisinin]
IC50 [18]: 101 ± 15 µM | IC50 [19]: > 1000 µM

— patent US9226913B2, “Methods of treating cancer using a combination of an immunomodulatory compound and an artemisinin or a derivative thereof” (Celgene Corporation, priority 2010, dated 2016)
